# Where “and” joins values, the source holds several entries; their conditions need not be identical. Equal entries are not always repeated. Where two headings read alike, the source gives them in different places.
# Assays:
# [1] = system: 2.2.15 cells (HepG2 cells transformed with hepatitis virion); assay: Toxicity analysis by uptake of neutral red dye in 2.2.15 cell cultures
# Experimental: (§1) Toxicity analyses were performed in order to assess whether any observed antiviral effects were due to a general effect on cell viability. The method used was based on the uptake of neutral red dye, a standard and widely used assay for cell viability in a variety of virus-host systems, including HSV (herpes simplex virus) and HIV. The test compounds were used in the form of 40 mM stock solutions in DMSO (frozen on dry ice). Daily aliquots of the test samples were made and frozen at −20° C. so that each individual aliquot would be subjected to a single freeze-thaw cycle. The daily test aliquots were thawed, suspended into culture medium at room temperature and immediately added to the cell cultures. The compounds were tested at 0.01 to 10 μM for antiviral activity. The compounds were tested for toxicity at concentrations from 1 to 300 μM.
# (§2) Toxicity analyses were performed in 96-well flat bottomed tissue culture plates. Cells for the toxicity analyses were cultured and treated with test compounds with the same schedule as used for the antiviral evaluations. Each compound was tested at 4 concentrations, each in triplicate cultures. Uptake of neutral red dye was used to determine the relative level of toxicity. The absorbance of internalized dye at […] (A510) was used for the quantitative analysis. Values are presented as a percentage of the average A510 values (± standard deviations) in 9 separate cultures of untreated cells maintained on the same 96-well plate as the test compounds.
# [2] = system: Hepatitis B virus; assay: Inhibition of HBV replication in transfected HepG-2 (2.2.15) cells (HBV virion DNA and replicative intermediates, blot hybridization); type: cell-based; conditions: for Selectivity Index IC50/EC50 RI: cytotoxicity IC50 / RI EC50; for Selectivity Index IC50/EC50 Virion: cytotoxicity IC50 / virion EC50; for Selectivity Index IC50/EC90 RI: cytotoxicity IC50 / RI EC90; for Selectivity Index IC50/EC90 Virion: cytotoxicity IC50 / virion EC90; for Inhibition of HBV replication (depression of HBV virion DNA and HBV RI), in words: 2.2.15 cells
# Experimental: The assay used herein to evaluate the ability of the disclosed compounds to inhibit the replication of HBV is described in detail in Korba and Gerin, Antiviral Res. 19: 55-70 (1992). […] The toxicity and anti-HBV activity of (−)-β-L-2-hydroxymethyl-5-(5-fluorocytosin-1-yl)-1,3-oxathiolane ((−)-β-L-FTC) and β-D-2′,3′-dideoxycytidine (β-D-ddC) are included as controls. The other compounds disclosed herein can be evaluated similarly.
# The antiviral evaluations were performed on two separate passages of cells, two cultures per passage (4 cultures total). All wells, in all plates, were seeded at the same density and at the same time.
# (Korba and Gerin, Antiviral Res. 19: 55-70, 1992). The levels of integrated HBV DNA in each cellular DNA preparation (which remain constant on a per cell basis in these experiments) were used to calculate the levels of intracellular HBV DNA forms, thereby eliminating technical variations inherent in the blot hybridization assays.
# as §1
# [3] = target: T1, human DNA polymerase α (Homo sapiens, UniProt P09884); assay: Inhibition of human DNA polymerase α by triphosphates; type: biochemical; conditions: read-out: DNA Pol α Ki
# T1 sequence (P09884 1-1462): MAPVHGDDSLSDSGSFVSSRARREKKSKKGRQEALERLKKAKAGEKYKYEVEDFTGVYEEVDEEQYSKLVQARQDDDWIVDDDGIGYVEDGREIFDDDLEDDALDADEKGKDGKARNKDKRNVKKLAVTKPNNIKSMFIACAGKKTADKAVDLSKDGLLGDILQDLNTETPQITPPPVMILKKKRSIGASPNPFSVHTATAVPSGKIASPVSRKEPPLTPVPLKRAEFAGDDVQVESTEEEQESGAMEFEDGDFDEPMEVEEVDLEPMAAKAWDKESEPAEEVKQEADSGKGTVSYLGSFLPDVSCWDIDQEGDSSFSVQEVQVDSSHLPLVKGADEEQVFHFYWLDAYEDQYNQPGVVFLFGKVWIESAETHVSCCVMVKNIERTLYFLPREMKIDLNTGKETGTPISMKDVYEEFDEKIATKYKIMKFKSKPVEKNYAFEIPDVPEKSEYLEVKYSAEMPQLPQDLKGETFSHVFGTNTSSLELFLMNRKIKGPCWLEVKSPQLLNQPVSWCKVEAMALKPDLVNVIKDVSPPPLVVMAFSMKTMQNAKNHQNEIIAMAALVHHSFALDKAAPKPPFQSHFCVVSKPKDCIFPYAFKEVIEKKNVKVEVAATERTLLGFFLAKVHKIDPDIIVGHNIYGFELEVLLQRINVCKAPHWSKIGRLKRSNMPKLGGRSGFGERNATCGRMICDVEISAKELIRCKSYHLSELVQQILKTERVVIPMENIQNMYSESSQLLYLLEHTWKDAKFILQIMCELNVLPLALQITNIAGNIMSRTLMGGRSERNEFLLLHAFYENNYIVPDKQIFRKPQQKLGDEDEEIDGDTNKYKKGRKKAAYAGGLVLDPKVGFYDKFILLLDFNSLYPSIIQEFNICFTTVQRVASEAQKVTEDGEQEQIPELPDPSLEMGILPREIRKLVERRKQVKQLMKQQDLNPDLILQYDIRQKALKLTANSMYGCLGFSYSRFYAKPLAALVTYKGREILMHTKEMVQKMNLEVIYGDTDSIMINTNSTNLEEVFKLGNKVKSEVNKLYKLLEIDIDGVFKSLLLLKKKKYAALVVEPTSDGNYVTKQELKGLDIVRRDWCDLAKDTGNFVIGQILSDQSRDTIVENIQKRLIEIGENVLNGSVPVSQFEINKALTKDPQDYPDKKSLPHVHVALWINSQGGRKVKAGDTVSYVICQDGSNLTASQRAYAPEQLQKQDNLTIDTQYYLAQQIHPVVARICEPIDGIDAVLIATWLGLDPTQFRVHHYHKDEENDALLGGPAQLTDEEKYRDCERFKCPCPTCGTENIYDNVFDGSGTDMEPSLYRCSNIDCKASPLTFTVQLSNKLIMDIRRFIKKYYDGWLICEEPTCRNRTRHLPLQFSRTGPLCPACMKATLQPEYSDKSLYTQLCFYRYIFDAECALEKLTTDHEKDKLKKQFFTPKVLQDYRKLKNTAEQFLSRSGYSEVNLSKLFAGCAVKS
# [4] = target: woodchuck hepatitis virus DNA polymerase (Woodchuck hepatitis B virus, UniProt P03160); assay: Inhibition of woodchuck hepatitis virus DNA polymerase by triphosphates; type: biochemical; conditions: read-out: WHB DNA Pol IC50
# [5] = target: human DNA polymerase β (Homo sapiens, UniProt P06746); assay: Inhibition of human DNA polymerase β by triphosphates; type: biochemical; conditions: read-out: DNA Pol β Ki
# [6] = Toxicity analysis by uptake of neutral red dye in 2.2.15 cell cultures; conditions: human, Cytotoxity IC50 ± SD, Table 1; neutral red dye uptake; 2.2.15 cells
# Experimental: as §1, §2
# [7] = system: 2.2.15 cells (HepG2 cells transformed with hepatitis virion); conditions: typically observed, Korba and Gerin 1992; read-out: Concentration giving a 2-fold reduction in dye uptake; cited from earlier work
# [8] = system: Hepatitis B virus; conditions: previous studies, Korba and Gerin 1992; cited from earlier work
# [9] = read-out: Cytotoxicity IC50, Table 2, Hep G-2 (2.2.15) cells
# [10] = Table 2, extracellular DNA, transfected Hep G-2 (2.2.15) cells, read-out: HBV Virion EC50
# [11] = Table 2, replicative intermediates (intracellular DNA), transfected Hep G-2 (2.2.15) cells, read-out: HBV RI EC50
# [12] = read-out: Cytotoxity IC50 ± SD, Table 1, neutral red dye uptake, 2.2.15 cells
# [13] = Table 1, extracellular DNA, transfected HEPG-2 (2.2.15) cells, read-out: HBV viron EC50 ± SD
# [14] = Table 1, extracellular DNA, transfected HEPG-2 (2.2.15) cells, read-out: HBV viron EC90 ± SD
# [15] = Table 1, replicative intermediates (intracellular DNA), transfected HEPG-2 (2.2.15) cells, read-out: HBV RI EC50 ± SD
# [16] = Table 1, replicative intermediates (intracellular DNA), transfected HEPG-2 (2.2.15) cells, read-out: HBV RI EC90 ± SD
# woodchuck hepatitis virus DNA polymerase, sequence (P03160 whole entry): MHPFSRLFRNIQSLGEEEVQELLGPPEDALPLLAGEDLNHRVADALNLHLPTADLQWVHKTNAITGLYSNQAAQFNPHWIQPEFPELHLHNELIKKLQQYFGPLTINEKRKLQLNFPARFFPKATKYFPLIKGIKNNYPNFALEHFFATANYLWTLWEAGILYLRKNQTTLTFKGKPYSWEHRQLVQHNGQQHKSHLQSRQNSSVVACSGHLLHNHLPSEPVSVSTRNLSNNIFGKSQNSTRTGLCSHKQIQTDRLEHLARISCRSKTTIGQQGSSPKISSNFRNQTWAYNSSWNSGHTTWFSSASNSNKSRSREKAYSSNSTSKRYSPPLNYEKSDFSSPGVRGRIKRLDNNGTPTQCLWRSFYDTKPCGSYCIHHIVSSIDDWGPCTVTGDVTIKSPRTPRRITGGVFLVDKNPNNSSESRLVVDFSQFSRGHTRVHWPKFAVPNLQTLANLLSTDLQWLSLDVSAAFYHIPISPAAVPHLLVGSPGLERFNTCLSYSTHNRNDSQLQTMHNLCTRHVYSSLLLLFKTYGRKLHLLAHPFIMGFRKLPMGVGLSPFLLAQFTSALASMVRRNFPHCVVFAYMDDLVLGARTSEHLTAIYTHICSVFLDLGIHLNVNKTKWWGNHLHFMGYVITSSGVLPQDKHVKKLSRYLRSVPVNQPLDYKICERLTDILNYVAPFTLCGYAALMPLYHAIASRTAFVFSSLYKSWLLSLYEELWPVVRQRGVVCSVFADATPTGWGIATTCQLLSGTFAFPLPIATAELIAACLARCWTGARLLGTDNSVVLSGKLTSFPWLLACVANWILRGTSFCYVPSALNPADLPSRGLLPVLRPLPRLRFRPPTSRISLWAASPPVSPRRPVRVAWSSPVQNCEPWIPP
smiles,measurement,setting,value
Nc1ncnc2c1ncn2[C@@H]1CC[C@H](CO)O1 [β-L-ddA],IC50,[1]; [9],250 µM
same,Selectivity Index IC50/EC50 RI,[2]; Table 2,50
same,Selectivity Index IC50/EC50 Virion,[2]; Table 2,50
same,EC50,[2]; [10],5000 nM
same,EC50,[2]; [11],5000 nM
"CC(C)(C)C(=O)SCCOP(=O)(OCCSC(=O)C(C)(C)C)OCC1CCC(n2cnc3c(N)ncnc32)O1 [Bis (Sate) β-L-ddAMP, β-L-2′,3′-Dideoxyadenosin-5′-yl bis (2-pivaloylthioethyl) phosphate]",IC50,[1]; [9],200 µM
same,Selectivity Index IC50/EC50 RI,[2]; Table 2,571
same,Selectivity Index IC50/EC50 Virion,[2]; Table 2,445
same,EC50,[2]; [10],450 nM
same,EC50,[2]; [11],350 nM
"Nc1ccn([C@@H]2CS[C@H](COP(=O)(O)OP(=O)(O)OP(=O)(O)O)O2)c(=O)n1 [Compound 3-TC-TP, reference compound]",Ki,[3],> 100 µM
same,IC50,[4],1000 nM
same,Ki,[5],> 100 µM
Cc1cn([C@@H]2C[C@@H](N=[N+]=[N-])[C@H](COP(=O)(O)OP(=O)(O)OP(=O)(O)O)O2)c(=O)[nH]c1=O [β-L-AZTPP],Ki,[3],> 100 µM
same,IC50,[4],200 nM
same,Ki,[5],> 100 µM
"Nc1nc(=O)n(C2CSC(CO)O2)cc1F [(−)-β-L-FTC, (−)-β-L-2-hydroxymethyl-5-(5-fluorocytosin-1-yl)-1,3-oxathiolane, reference compound]",IC50,[1]; [12],292 ± 13 µM
same,Selectivity Index IC50/EC90 RI,[2]; Table 1,"1,622"
same,Selectivity Index IC50/EC90 Virion,[2]; Table 1,"1,947"
same,EC50,[2]; [13],17 ± 5 nM
same,EC90,[2]; [14],150 ± 20 nM
same,EC50,[2]; [15],49 ± 8 nM
same,EC90,[2]; [16],180 ± 30 nM
"Nc1ccn([C@@H]2CC[C@H](CO)O2)c(=O)n1 [β-L-DDC, 2′,3′-Dideoxy-β-L-cytidine]",IC50,[1]; [12],493 ± 64 µM
same,"Inhibition of HBV replication (depression of HBV virion DNA and HBV RI), in words",[2],potent inhibitors of HBV replication
same,Selectivity Index IC50/EC90 RI,[2]; Table 1,274
same,Selectivity Index IC50/EC90 Virion,[2]; Table 1,448
same,EC50,[2]; [13],33 ± 3 nM
same,EC90,[2]; [14],1100 ± 200 nM
same,EC50,[2]; [15],107 ± 12 nM
same,EC90,[2]; [16],1800 ± 200 nM
"Nc1ccn([C@H]2CC[C@@H](CO)O2)c(=O)n1 [β-D-DDC, β-D-2′,3′-dideoxycytidine, reference compound]",IC50,[1]; [12],219 µM
same,IC50,[6],216 ± 22 µM
same,"Inhibition of HBV replication (depression of HBV virion DNA and HBV RI), in words",[2],significant depressions of HBV DNA replication
same,EC90,"[2]; Hepatitis B virus, HepG2 2.2.15, read-out: HBV RI EC90 ± SD, Table 1, replicative intermediates (intracellular DNA), transfected HEPG-2 (2.2.15) cells",11000 ± 2000 nM
same,EC50,"[2]; Hepatitis B virus, HepG2 2.2.15, read-out: HBV viron EC50 ± SD, Table 1, extracellular DNA, transfected HEPG-2 (2.2.15) cells",1500 ± 700 nM
same,Selectivity Index IC50/EC90 RI,[2]; Table 1,20 and 18
same,EC90,"[2]; read-out: HBV RI EC90 ± SD, Table 1, replicative intermediates (intracellular DNA), transfected HEPG-2 (2.2.15) cells",12000 ± 2400 nM
same,EC50,"[2]; read-out: HBV viron EC50 ± SD, Table 1, extracellular DNA, transfected HEPG-2 (2.2.15) cells",1300 nM
same,IC50,[7],150 to 190 µM
same,Concentration giving a 90% depression of HBV RI,[8],9 to 12 µM

# — US7468357B2, “Nucleosides with anti-hepatitis B virus activity” (Emory University, priority 1994, dated 2008)
